Experimental data reported in ChEMBL document CHEMBL1201862, “PubChem BioAssay data set” (2004).
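All cell lines were grown in 96-well plates and treated with compound for 48 hours. GI50 marks 50% less growth.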 Calls of active or inactive are those of the source. No stated cut-off is given here; in the data, active = GI50 up to about 1.1 µM and inactive = higher.

Legend:
Assay in all cases: growth of human tumour cells (NCI), 48 h
OVCAR-3 = test system: OVCAR-3
SK-MEL-28 = test system: SK-MEL-28
RXF 393 = test system: RXF 393
DLD-1 = test system: DLD-1
SNB-78 = test system: SNB-78
SR = test system: SR
NCI-H460 = test system: NCI-H460
Malme-3M = test system: Malme-3M
A498 = test system: A498
HCT-15 = test system: HCT-15
SK-MEL-2 = test system: SK-MEL-2
HOP-92 = test system: HOP-92
SF-295 = test system: SF-295
IGROV-1 = test system: IGROV-1
MOLT-4 = test system: MOLT-4
M19-MEL = test system: M19-MEL
RXF 631 = test system: RXF 631
SW-620 = test system: SW-620
COLO 205 = test system: COLO 205
UACC-62 = test system: UACC-62
KM12 = test system: KM12
K562 = test system: K562
HL-60 = test system: HL-60
CCRF-CEM = test system: CCRF-CEM
HT-29 = test system: HT-29
786-0 = test system: 786-0
OVCAR-4 = test system: OVCAR-4
HOP-18 = test system: HOP-18
SK-OV-3 = test system: SK-OV-3
LXFL 529 = test system: LXFL 529
SF-268 = test system: SF-268
SNB-75 = test system: SNB-75
HCT-116 = test system: HCT-116
U-251 = test system: U-251
NCI-H522 = test system: NCI-H522
NCI-H226 = test system: NCI-H226
DMS-114 = test system: DMS-114
RPMI-8226 = test system: RPMI-8226
SN12C = test system: SN12C
DMS-273 = test system: DMS-273
UO-31 = test system: UO-31
HCC 2998 = test system: HCC 2998
UACC-257 = test system: UACC-257
SK-MEL-5 = test system: SK-MEL-5
A549 = test system: A549
LOX IMVI = test system: LOX IMVI
TK-10 = test system: TK-10
NCI-H23 = test system: NCI-H23
OVCAR-5 = test system: OVCAR-5
KM-20L2 = test system: KM-20L2
HOP-62 = test system: HOP-62
EKVX = test system: EKVX
SF-539 = test system: SF-539
M14 = test system: M14
OVCAR-8 = test system: OVCAR-8
ACHN = test system: ACHN
CAKI-1 = test system: CAKI-1
SNB-19 = test system: SNB-19
XF498 = test system: XF498

## NC(=O)N/N=C1/CCCC/C1=C\c1ccccc1
OVCAR-3
  GI50: > 100 µM (inactive)
SK-MEL-28
  GI50: > 100 µM (inactive)
RXF 393
  GI50: > 100 µM (inactive)
DLD-1
  GI50: > 100 µM (inactive)
SNB-78
  GI50: > 100 µM (inactive)
SR
  GI50: > 100 µM (inactive)
NCI-H460
  GI50: > 100 µM (inactive)
Malme-3M
  GI50: > 100 µM (inactive)
A498
  GI50: > 100 µM (inactive)
HCT-15
  GI50: > 100 µM
SK-MEL-2
  GI50: > 100 µM (inactive)
HOP-92
  GI50: > 100 µM (inactive)
SF-295
  GI50: > 100 µM (inactive)
IGROV-1
  GI50: > 100 µM (inactive)
MOLT-4
  GI50: 36.6 µM (inactive)
M19-MEL
  GI50: > 100 µM (inactive)
RXF 631
  GI50: > 100 µM (inactive)
SW-620
  GI50: > 100 µM (inactive)
COLO 205
  GI50: > 100 µM (inactive)
UACC-62
  GI50: > 100 µM (inactive)
KM12
  GI50: > 100 µM (inactive)
K562
  GI50: > 100 µM (inactive)
HL-60
  GI50: > 100 µM (inactive)
CCRF-CEM
  GI50: > 100 µM (inactive)
HT-29
  GI50: > 100 µM (inactive)
786-0
  GI50: > 100 µM (inactive)
OVCAR-4
  GI50: > 100 µM (inactive)
HOP-18
  GI50: > 100 µM (inactive)
SK-OV-3
  GI50: > 100 µM (inactive)
LXFL 529
  GI50: > 100 µM (inactive)
SF-268
  GI50: > 100 µM (inactive)
SNB-75
  GI50: 76.6 µM (inactive)
HCT-116
  GI50: > 100 µM (inactive)
U-251
  GI50: > 100 µM (inactive)
NCI-H522
  GI50: > 100 µM (inactive)
NCI-H226
  GI50: > 100 µM (inactive)
DMS-114
  GI50: > 100 µM (inactive)
RPMI-8226
  GI50: > 100 µM (inactive)
SN12C
  GI50: > 100 µM (inactive)
DMS-273
  GI50: > 100 µM (inactive)
UO-31
  GI50: 80.9 µM (inactive)
HCC 2998
  GI50: > 100 µM (inactive)
UACC-257
  GI50: > 100 µM (inactive)
SK-MEL-5
  GI50: > 100 µM (inactive)
A549
  GI50: > 100 µM (inactive)
LOX IMVI
  GI50: > 100 µM (inactive)
TK-10
  GI50: > 100 µM (inactive)
NCI-H23
  GI50: > 100 µM (inactive)
OVCAR-5
  GI50: > 100 µM (inactive)
KM-20L2
  GI50: > 100 µM (inactive)
HOP-62
  GI50: > 100 µM (inactive)
EKVX
  GI50: > 100 µM (inactive)
SF-539
  GI50: > 100 µM (inactive)
M14
  GI50: > 100 µM (inactive)
OVCAR-8
  GI50: > 100 µM (inactive)
ACHN
  GI50: > 100 µM (inactive)
CAKI-1
  GI50: > 100 µM (inactive)

## CC(C)(C)OC1=C(OC(C)(C)C)C(O)(c2ccccc2)C1=O (stereo unspecified)
OVCAR-3
  GI50: > 100 µM (inactive)
SK-MEL-28
  GI50: > 100 µM (inactive)
RXF 393
  GI50: > 100 µM (inactive)
DLD-1
  GI50: > 100 µM (inactive)
SNB-78
  GI50: > 100 µM (inactive)
NCI-H460
  GI50: > 100 µM (inactive)
Malme-3M
  GI50: > 100 µM (inactive)
A498
  GI50: > 100 µM (inactive)
HCT-15
  GI50: > 100 µM
SF-295
  GI50: > 100 µM (inactive)
IGROV-1
  GI50: > 100 µM (inactive)
MOLT-4
  GI50: > 100 µM (inactive)
M19-MEL
  GI50: > 100 µM (inactive)
RXF 631
  GI50: > 100 µM (inactive)
SW-620
  GI50: > 100 µM (inactive)
COLO 205
  GI50: > 100 µM (inactive)
UACC-62
  GI50: > 100 µM (inactive)
KM12
  GI50: > 100 µM (inactive)
K562
  GI50: > 100 µM (inactive)
HL-60
  GI50: > 100 µM (inactive)
CCRF-CEM
  GI50: > 100 µM (inactive)
HT-29
  GI50: > 100 µM (inactive)
786-0
  GI50: > 100 µM (inactive)
OVCAR-4
  GI50: > 100 µM (inactive)
HOP-18
  GI50: > 100 µM (inactive)
SK-OV-3
  GI50: > 100 µM (inactive)
LXFL 529
  GI50: > 100 µM (inactive)
SF-268
  GI50: > 100 µM (inactive)
SNB-75
  GI50: > 100 µM (inactive)
U-251
  GI50: > 100 µM (inactive)
DMS-114
  GI50: > 100 µM (inactive)
RPMI-8226
  GI50: > 100 µM (inactive)
SN12C
  GI50: > 100 µM (inactive)
DMS-273
  GI50: > 100 µM (inactive)
UO-31
  GI50: > 100 µM (inactive)
HCC 2998
  GI50: > 100 µM (inactive)
SK-MEL-5
  GI50: > 100 µM (inactive)
A549
  GI50: > 100 µM (inactive)
LOX IMVI
  GI50: > 100 µM (inactive)
TK-10
  GI50: > 100 µM (inactive)
NCI-H23
  GI50: > 100 µM (inactive)
OVCAR-5
  GI50: > 100 µM (inactive)
EKVX
  GI50: > 100 µM (inactive)
SF-539
  GI50: > 100 µM (inactive)
M14
  GI50: > 100 µM (inactive)
OVCAR-8
  GI50: > 100 µM (inactive)
ACHN
  GI50: > 100 µM (inactive)
SNB-19
  GI50: > 100 µM (inactive)

## CCOP(=O)(OCC)OC1C=CC2CCC1C2 (stereo unspecified)
OVCAR-3
  GI50: > 100 µM (inactive)
SK-MEL-28
  GI50: > 100 µM (inactive)
RXF 393
  GI50: > 100 µM (inactive)
XF498
  GI50: > 100 µM (inactive)
DLD-1
  GI50: > 100 µM (inactive)
SNB-78
  GI50: > 100 µM (inactive)
SR
  GI50: 26.6 µM (inactive)
NCI-H460
  GI50: > 100 µM (inactive)
Malme-3M
  GI50: > 100 µM (inactive)
A498
  GI50: > 100 µM (inactive)
HCT-15
  GI50: 20.7 µM
SK-MEL-2
  GI50: > 100 µM (inactive)
SF-295
  GI50: > 100 µM (inactive)
IGROV-1
  GI50: > 100 µM (inactive)
MOLT-4
  GI50: > 100 µM (inactive)
RXF 631
  GI50: > 100 µM (inactive)
COLO 205
  GI50: > 100 µM (inactive)
UACC-62
  GI50: > 100 µM (inactive)
KM12
  GI50: > 100 µM (inactive)
K562
  GI50: > 100 µM (inactive)
HL-60
  GI50: > 100 µM (inactive)
CCRF-CEM
  GI50: > 100 µM (inactive)
HT-29
  GI50: > 100 µM (inactive)
786-0
  GI50: 86.3 µM (inactive)
OVCAR-4
  GI50: > 100 µM (inactive)
HOP-18
  GI50: > 100 µM (inactive)
SK-OV-3
  GI50: > 100 µM (inactive)
LXFL 529
  GI50: > 100 µM (inactive)
SF-268
  GI50: > 100 µM (inactive)
SNB-75
  GI50: > 100 µM (inactive)
HCT-116
  GI50: > 100 µM (inactive)
U-251
  GI50: > 100 µM (inactive)
NCI-H522
  GI50: > 100 µM (inactive)
NCI-H226
  GI50: > 100 µM (inactive)
DMS-114
  GI50: 87.9 µM (inactive)
RPMI-8226
  GI50: 28.1 µM (inactive)
SN12C
  GI50: > 100 µM (inactive)
DMS-273
  GI50: 18.6 µM (inactive)
UO-31
  GI50: > 100 µM (inactive)
HCC 2998
  GI50: > 100 µM (inactive)
UACC-257
  GI50: > 100 µM (inactive)
SK-MEL-5
  GI50: > 100 µM (inactive)
A549
  GI50: > 100 µM (inactive)
LOX IMVI
  GI50: > 100 µM (inactive)
TK-10
  GI50: > 100 µM (inactive)
NCI-H23
  GI50: > 100 µM (inactive)
OVCAR-5
  GI50: > 100 µM (inactive)
KM-20L2
  GI50: > 100 µM (inactive)
HOP-62
  GI50: > 100 µM (inactive)
EKVX
  GI50: > 100 µM (inactive)
SF-539
  GI50: > 100 µM (inactive)
M14
  GI50: > 100 µM (inactive)
OVCAR-8
  GI50: > 100 µM (inactive)
ACHN
  GI50: > 100 µM (inactive)
SNB-19
  GI50: > 100 µM (inactive)
CAKI-1
  GI50: > 100 µM (inactive)
